Assay results taken from US20210322443A1 (MAPREG, priority 2015, published 2021).

Assays:
[1] = target: Noradrenergic β2 (Homo sapiens, UniProt P07550); experiment: CNS receptor binding assay; settings: read-out: % Inhibition of control specific binding
[2] = target: Serotoninergic 5-HT1A (Homo sapiens, UniProt P08908); experiment: CNS receptor binding assay; settings: read-out: % Inhibition of control specific binding
[3] = tested on: 80 different CNS neurotransmitters receptors; experiment: Screen for in vitro affinity to 80 CNS receptors; format: binding; settings: significant = inhibition higher than 50%
[4] = target: Serotoninergic 5-HT5A (Homo sapiens, UniProt P47898); experiment: CNS receptor binding assay; settings: read-out: % Inhibition of control specific binding
[5] = target: Dopaminergic D5 (Homo sapiens, UniProt P21918); experiment: CNS receptor binding assay; settings: read-out: % Inhibition of control specific binding
[6] = target: Dopaminergic D2S (Homo sapiens, UniProt P14416); experiment: CNS receptor binding assay; settings: read-out: % Inhibition of control specific binding
[7] = target: Androgen Receptor (AR) (Rattus norvegicus, UniProt P15207); experiment: Radioligand binding assay, steroid hormone receptors; settings: 1.5 nM [3H] Mibolerone, Rat recombinant E. coli, read-out: % inhibition of specific binding
Experimental: Binding affinity of 3β-methoxy-PREG (MAP4343) for receptors of steroid hormones was evaluated using radioligand binding assays.

[8] = target: Oppioid μ (Homo sapiens, UniProt P35372); experiment: CNS receptor binding assay; settings: [3H] DAMGO, Human recombinant (HEK-293 cells), read-out: % Inhibition of control specific binding
[9] = target: Histaminergic H2 (Homo sapiens, UniProt P25021); experiment: CNS receptor binding assay; settings: read-out: % Inhibition of control specific binding
[10] = tested on: GABA (non-selective); experiment: CNS receptor binding assay; settings: 10 μM; [3H] GABA; rat cerebral cortex
[11] = target: Muscarinic (Cholinergic) M3 (Homo sapiens, UniProt P20309); experiment: CNS receptor binding assay; settings: [3H] 4-DAMP, Human recombinant (CHO cells), read-out: % Inhibition of control specific binding
[12] = tested on: alcohol self-administration; experiment: Operant alcohol self-administration in ethanol dependent and non-dependent rats; format: in vivo, Wistar rats
Experimental: Alcohol self-administration in ethanol dependent and non-dependent animals is a well-known and well-characterized animal model for analysis of alcoholism behaviors (Roberts et al. 1999, 2000; Rimondini et al. 2002; O'Dell et al. 2004; Richardson et al. 2008; Gilpin et al. 2009).
Adult male Wistar rats (Charles River, Raleigh, N.C.), weighing 225-275 g at the beginning of the experiments, were housed in groups of 2-3 per cage in a temperature-controlled (22° C.) vivarium on a 12 h/12 h light/dark cycle (lights on at 8:00 PM) with ad libitum access to food and water. All behavioral tests were conducted during the dark phase of the light/dark cycle. All procedures adhered to the National Institutes of Health Guide for the Care and Use of Laboratory Animals and were approved by the Institutional Animal Care and Use Committee of The Scripps Research Institute.
Self-administration sessions were conducted in standard operant conditioning chambers (Med Associates, St. Albans, Vt.). Animals were first trained to self-administer 10% (w/v) ethanol and water solutions until a stable response was maintained. The rats were subjected to an overnight session in the operant chambers with access to one lever (right lever) that delivered water (FR1). Food was available ad libitum during this training. After 1 day off, the rats were subjected to a 2 h session (FR1) for 1 day and a 1 h session (FR1) the next day, with one lever delivering alcohol (right lever). All of the subsequent sessions lasted 30 min, and two levers were available (left lever: water; right lever: alcohol) until stable levels of intake were reached. Upon completion of this procedure, the animals were allowed to self-administer a 10% (w/v) alcohol solution and water on an FR1 schedule of reinforcement (i.e., each operant response was reinforced with 0.1 ml of the solution).
Once a stable baseline of alcohol self-administration was reached, the rats were made dependent by chronic, intermittent exposure to alcohol vapors. […]
(§1) Data were analyzed by appropriate mixed factorial ANOVA, followed Newman Keuls post hoc tests

[13] = Blood parameters before and after MAP4343 treatment; format: in vivo, Wistar rats; settings: dependent and non-dependent rats, pre/post treatment, 10 mg/kg sub-cutaneously, FIGS. 4 to 17
Experimental: Blood samples were obtained before and after completion of the treatment with MAP4343 using retro-orbital sampling. Blood, serum and plasma were collected and analyzed using standard procedures to evaluate blood count panel, blood urea nitrogen, cholesterol, creatinine, T3, T4 and protein electrophoresis.
as §1

[14] = target: Muscarinic (Cholinergic) M2 (Homo sapiens, UniProt P08172); experiment: CNS receptor binding assay; settings: [3H] AF-DX 384, Human recombinant (CHO cells), read-out: % Inhibition of control specific binding
[15] = target: Dopaminergic D3 (Homo sapiens, UniProt P35462); experiment: CNS receptor binding assay; settings: read-out: % Inhibition of control specific binding
[16] = target: Muscarinic (Cholinergic) M1 (Homo sapiens, UniProt P11229); experiment: CNS receptor binding assay; settings: [3H] pirenzepine, Human recombinant (CHO cells), read-out: % Inhibition of control specific binding
[17] = target: Cannabinoid CB1 (Homo sapiens, UniProt P21554); experiment: CNS receptor binding assay; settings: [3H] CP55940, Human recombinant (CHO cells), read-out: % Inhibition of control specific binding
[18] = target: Noradrenergic β1 (Homo sapiens, UniProt P08588); experiment: CNS receptor binding assay; settings: read-out: % Inhibition of control specific binding
Chain of Noradrenergic β1 (P08588 whole entry): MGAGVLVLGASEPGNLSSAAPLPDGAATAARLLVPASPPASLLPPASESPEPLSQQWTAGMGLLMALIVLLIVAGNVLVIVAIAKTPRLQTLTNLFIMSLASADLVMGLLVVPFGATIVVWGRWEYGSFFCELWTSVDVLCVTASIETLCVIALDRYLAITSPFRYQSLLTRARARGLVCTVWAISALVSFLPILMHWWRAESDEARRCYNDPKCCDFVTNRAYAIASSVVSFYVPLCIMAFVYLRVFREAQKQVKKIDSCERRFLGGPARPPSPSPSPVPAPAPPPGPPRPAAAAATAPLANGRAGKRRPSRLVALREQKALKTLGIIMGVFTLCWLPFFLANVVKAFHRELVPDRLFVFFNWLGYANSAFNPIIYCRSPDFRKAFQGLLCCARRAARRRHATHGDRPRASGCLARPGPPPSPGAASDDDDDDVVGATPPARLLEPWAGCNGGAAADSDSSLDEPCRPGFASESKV

Chain of Serotoninergic 5-HT5A (P47898 whole entry): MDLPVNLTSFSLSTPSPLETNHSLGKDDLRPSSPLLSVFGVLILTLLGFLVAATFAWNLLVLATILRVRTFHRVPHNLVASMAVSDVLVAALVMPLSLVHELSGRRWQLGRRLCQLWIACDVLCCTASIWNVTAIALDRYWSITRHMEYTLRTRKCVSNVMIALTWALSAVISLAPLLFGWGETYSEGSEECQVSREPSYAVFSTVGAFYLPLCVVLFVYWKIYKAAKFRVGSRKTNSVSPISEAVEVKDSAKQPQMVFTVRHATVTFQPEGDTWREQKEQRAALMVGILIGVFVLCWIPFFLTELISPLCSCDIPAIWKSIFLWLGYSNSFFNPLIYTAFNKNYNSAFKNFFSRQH
Chain of Muscarinic (Cholinergic) M1 (P11229 whole entry): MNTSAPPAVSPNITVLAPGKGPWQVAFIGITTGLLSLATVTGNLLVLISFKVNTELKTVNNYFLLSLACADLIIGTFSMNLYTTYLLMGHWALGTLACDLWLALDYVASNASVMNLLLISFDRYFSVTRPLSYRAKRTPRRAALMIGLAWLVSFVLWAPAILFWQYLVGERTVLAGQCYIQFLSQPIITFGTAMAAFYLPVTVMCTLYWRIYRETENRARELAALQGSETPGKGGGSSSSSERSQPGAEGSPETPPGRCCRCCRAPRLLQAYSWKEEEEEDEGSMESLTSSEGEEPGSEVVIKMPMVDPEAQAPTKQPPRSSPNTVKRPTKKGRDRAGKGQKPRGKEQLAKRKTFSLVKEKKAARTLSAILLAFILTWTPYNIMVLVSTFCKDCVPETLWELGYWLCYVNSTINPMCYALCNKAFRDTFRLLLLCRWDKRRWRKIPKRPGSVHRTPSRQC
Chain of Serotoninergic 5-HT1A (P08908 whole entry): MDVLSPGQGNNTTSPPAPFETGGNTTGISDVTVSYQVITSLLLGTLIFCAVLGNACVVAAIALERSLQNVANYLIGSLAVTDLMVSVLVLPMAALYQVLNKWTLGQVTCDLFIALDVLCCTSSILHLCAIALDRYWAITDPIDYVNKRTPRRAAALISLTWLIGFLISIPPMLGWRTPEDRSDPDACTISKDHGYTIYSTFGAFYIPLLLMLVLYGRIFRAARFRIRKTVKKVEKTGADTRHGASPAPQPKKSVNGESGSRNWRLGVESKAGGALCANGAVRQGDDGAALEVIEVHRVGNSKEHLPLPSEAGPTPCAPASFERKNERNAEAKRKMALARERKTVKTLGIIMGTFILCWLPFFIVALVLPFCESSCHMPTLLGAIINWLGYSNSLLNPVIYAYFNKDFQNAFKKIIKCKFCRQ
Chain of Muscarinic (Cholinergic) M2 (P08172 whole entry): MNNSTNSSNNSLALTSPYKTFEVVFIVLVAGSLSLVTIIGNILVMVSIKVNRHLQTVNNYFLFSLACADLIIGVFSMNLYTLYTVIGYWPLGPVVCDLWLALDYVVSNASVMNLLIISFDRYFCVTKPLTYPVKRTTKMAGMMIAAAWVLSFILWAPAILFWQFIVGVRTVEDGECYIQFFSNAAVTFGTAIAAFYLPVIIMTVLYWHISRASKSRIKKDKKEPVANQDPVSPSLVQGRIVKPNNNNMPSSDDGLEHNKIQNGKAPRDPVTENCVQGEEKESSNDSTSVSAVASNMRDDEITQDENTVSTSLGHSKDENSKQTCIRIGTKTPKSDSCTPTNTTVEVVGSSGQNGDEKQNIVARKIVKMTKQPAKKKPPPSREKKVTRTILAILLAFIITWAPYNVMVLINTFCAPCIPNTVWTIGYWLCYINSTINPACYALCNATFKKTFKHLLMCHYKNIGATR
Chain of Muscarinic (Cholinergic) M3 (P20309 whole entry): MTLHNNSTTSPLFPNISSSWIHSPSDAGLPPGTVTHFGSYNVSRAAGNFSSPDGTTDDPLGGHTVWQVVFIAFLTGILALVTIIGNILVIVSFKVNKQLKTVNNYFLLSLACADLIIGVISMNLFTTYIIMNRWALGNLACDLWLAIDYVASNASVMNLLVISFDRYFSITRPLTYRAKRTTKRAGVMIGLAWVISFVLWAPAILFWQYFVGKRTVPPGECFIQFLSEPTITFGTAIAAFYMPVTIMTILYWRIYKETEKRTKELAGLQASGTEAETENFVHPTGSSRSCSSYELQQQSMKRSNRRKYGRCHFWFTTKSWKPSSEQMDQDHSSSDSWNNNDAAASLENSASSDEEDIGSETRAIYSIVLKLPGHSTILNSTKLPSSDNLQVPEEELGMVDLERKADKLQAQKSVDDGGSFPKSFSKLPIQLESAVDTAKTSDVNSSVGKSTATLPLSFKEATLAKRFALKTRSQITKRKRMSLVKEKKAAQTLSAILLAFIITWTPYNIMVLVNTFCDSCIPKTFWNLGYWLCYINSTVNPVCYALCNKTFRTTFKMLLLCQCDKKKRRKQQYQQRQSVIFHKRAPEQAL
Chain of Dopaminergic D5 (P21918 whole entry): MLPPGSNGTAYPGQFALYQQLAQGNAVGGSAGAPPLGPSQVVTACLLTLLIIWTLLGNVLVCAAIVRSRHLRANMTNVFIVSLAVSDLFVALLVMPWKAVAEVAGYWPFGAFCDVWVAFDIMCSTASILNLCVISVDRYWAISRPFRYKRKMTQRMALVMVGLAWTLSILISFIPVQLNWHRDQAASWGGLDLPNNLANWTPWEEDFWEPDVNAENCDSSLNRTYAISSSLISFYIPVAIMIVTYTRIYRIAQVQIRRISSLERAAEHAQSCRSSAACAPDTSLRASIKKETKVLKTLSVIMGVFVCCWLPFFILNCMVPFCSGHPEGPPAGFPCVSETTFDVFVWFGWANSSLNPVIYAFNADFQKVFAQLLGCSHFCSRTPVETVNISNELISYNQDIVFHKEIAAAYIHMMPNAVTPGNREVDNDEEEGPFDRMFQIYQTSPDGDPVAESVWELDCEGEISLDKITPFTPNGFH
Chain of Cannabinoid CB1 (P21554 whole entry): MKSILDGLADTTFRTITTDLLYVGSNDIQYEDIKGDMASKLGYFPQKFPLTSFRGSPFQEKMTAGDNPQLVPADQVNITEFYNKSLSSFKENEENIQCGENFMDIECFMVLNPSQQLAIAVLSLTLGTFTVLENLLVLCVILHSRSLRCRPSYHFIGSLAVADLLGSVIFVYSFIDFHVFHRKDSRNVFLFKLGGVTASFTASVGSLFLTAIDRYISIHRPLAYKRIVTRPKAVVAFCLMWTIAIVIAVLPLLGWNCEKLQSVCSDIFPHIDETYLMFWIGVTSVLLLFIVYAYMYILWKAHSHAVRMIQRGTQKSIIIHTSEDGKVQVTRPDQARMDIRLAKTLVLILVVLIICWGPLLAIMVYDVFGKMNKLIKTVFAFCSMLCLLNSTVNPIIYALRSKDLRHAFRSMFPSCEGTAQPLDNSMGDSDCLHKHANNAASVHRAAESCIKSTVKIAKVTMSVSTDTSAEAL
Chain of Dopaminergic D3 (P35462 whole entry): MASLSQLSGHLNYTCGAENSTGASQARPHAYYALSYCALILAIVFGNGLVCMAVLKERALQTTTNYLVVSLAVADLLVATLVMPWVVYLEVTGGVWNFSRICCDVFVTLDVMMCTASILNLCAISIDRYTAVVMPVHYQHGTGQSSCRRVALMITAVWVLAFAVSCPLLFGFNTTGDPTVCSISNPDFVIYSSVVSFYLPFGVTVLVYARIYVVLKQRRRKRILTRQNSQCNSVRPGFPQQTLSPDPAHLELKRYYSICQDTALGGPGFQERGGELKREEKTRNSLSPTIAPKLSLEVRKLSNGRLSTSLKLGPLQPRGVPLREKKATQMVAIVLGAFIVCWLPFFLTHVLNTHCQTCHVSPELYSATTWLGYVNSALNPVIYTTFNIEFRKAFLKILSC
Chain of Histaminergic H2 (P25021 whole entry): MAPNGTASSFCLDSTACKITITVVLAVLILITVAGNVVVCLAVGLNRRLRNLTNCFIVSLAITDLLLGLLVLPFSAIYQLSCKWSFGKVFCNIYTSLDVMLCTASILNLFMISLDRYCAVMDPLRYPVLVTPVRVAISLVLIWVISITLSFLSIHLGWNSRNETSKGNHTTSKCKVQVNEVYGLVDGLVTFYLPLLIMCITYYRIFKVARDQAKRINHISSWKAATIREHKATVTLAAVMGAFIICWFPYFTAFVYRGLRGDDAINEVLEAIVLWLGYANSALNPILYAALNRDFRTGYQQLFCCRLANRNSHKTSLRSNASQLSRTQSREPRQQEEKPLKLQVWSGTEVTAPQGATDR
Chain of Oppioid μ (P35372 whole entry): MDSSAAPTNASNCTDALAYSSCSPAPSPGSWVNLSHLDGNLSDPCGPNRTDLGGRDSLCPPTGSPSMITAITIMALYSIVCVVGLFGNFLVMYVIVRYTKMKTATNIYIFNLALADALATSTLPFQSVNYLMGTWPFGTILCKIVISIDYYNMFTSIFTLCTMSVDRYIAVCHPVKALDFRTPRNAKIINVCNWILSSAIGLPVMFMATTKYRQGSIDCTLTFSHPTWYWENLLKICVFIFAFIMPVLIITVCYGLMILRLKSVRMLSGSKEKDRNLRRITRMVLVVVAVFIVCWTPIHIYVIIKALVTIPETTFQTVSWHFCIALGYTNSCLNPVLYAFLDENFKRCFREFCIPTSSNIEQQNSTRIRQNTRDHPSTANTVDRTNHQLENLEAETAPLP

SMILES: CO[C@H]1CC[C@@]2(C)C(=CC[C@H]3[C@@H]4CC[C@H](C(C)=O)[C@@]4(C)CC[C@@H]32)C1 [MAP4343, 3β-methoxy-pregna-5-ene-20-one]
- inhibition at 10 µM [1]: -4%
- inhibition at 10 µM [2]: 2%
- in vitro affinity for any tested receptor [3]: no significant affinity for any tested receptor
- inhibition at 10 µM [4]: -5%
- inhibition at 10 µM [5]: -7%
- inhibition at 10 µM [6]: 6%
- inhibition at 10 µM [7]: < 25%
- inhibition at 10 µM [8]: 0%
- inhibition at 10 µM [9]: -21%
- % Inhibition of control specific binding [10]: 2%
- inhibition at 10 µM [11]: 3%
- operant responding for alcohol (alcohol reinforced responses) ([12]; dependent (vapor) rats, 10 mg/kg sub-cutaneously in sesame oil 24 hours before each test session, p<0.05 from test session 8): significantly reduce operant responding for alcohol selectively in the dependent animals
- time of treatment until efficacy was apparent ([12]; dependent rats, 10 mg/kg sub-cutaneously): ~10 days
- reduction of excessive alcohol drinking ([12]; non-dependent (air) rats, 10 mg/kg sub-cutaneously 24 hours before each test session): not in non-dependent rats
- effect on blood parameters (blood count panel, blood urea nitrogen, cholesterol, creatinine, T3, T4, protein electrophoresis) [13]: no significant effects of dependence or treatment on any of the blood parameters investigated
- inhibition at 10 µM [14]: 20%
- inhibition at 10 µM [15]: 8%
- inhibition at 10 µM [16]: -3%
- inhibition at 10 µM [17]: 12%
- inhibition at 10 µM [18]: 1%
